# From patent publication EP0460690A2, “Use of phenolsulfophthaline derivatives for the treatment of osteoporosis” (THE GREEN CROSS CORPORATION, priority 1990, dated 1991)
# Experiments:
# [1] = test system: rats suffering from osteoporosis; assay: Bone mass increase in osteoporosis rats (ovariectomy and sciatic nerve excision); format: in vivo, Wister female rats; details: thigh bone, oral 100 µg/kg body weight everyday in 5 % Tween 20, after 12 weeks; for Bone Mass Ash wt./unit vol.: carrier 370 ± 19, normal rats 387 ± 16; for Bone Mass Dry wt./unit vol.: carrier 821 ± 15, normal rats 976 ± 11
# From the text: The effects of the phenolsulfophthalein compounds of the present invention of increasing bone mass were examined by using rats suffering from osteoporosis.
# Wister female rats aged 7 to 8 months (8 rats per group) were subjected to ovariectomy and sciatic nerve excision to thereby cause osteoporosis. Starting from the next day after the operation, compound 1, as described above, and compound 2 (represented by formula (I), wherein R¹ and R² are both acetyl groups) each dispersed in 5 % Tween 20 were orally administered in a dose of 100 µg/kg body weight everyday. After 12 weeks, the thigh bones of the animals were collected and the volume, dry weight and ash weight were measured. Thus the dry weight and ash weight per unit volume were determined.
# Wister female rats = assay: Acute toxicity, oral administration; format: in vivo; details: dispersed in 5 % Tween 20, eight rats, dose of 1 g/kg body weight
# From the text: Compound 1 dispersed in 5 % Tween 20 was orally administered to eight Wister female rats aged 7 to 8 months.
# [2] = target: T1, estrogen receptor in mastocarcinoma (Homo sapiens, UniProt P03372); details: literature report; cited from earlier work
# T1 construct: host or cells: mastocarcinoma
# T1 sequence (P03372 1-595): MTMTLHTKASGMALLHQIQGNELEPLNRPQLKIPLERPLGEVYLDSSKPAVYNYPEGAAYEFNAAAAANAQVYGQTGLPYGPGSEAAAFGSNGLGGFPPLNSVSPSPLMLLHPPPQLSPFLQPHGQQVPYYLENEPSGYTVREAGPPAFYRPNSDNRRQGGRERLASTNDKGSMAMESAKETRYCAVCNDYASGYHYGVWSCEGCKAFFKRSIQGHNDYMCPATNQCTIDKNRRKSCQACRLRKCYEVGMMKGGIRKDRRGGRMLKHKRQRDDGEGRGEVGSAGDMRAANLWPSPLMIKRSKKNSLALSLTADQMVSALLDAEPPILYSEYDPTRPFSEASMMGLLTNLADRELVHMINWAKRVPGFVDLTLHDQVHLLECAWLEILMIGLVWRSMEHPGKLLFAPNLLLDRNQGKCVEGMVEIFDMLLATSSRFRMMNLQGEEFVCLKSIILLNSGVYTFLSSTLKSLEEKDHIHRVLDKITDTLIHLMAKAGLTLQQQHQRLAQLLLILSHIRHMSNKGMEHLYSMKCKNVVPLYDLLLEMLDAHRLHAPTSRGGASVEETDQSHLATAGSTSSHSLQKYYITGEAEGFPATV
SMILES,Bone Mass Ash wt./unit vol. [1] [mg/mL],Bone Mass Dry wt./unit vol. [1] [mg/mL],mortality (acute toxicity) (Wister female rats),binding to estrogen receptor [2]
O=S(=O)(Oc1ccccc1)c1ccccc1C(c1ccc(O)cc1)c1ccc(O)cc1 [compound 1],385 ± 12,861 ± 12,no animal died,–
CC(=O)Oc1ccc(C(c2ccc(OC(C)=O)cc2)c2ccccc2S(=O)(=O)Oc2ccccc2)cc1 [compound 2],383 ± 14,856 ± 15,–,–
O=S(=O)(Oc1ccccc1)c1ccccc1C(c1ccc(O)cc1)c1ccc(O)cc1 [drawing 1],–,–,–,binding to an estrogen receptor
